Assay [1] deals with norepinephrine transporter (NET) (Rattus norvegicus, UniProt Q63380). The following applies: rat brain membranes, Table 1 thioacetamides and sulfinylacetamides; for Ki: read-out: Ki (nM) ± S.E.M. NET. Here is the method: Binding affinities of all compounds were evaluated at the DAT, SERT, and NET in rat brain membranes using previously described methods:
Norepinephrine Transporter Binding Assay. Brains from male Sprague-Dawley rats weighing 200-225 g (Taconic Labs, Germantown, N.Y.) were removed, frontal cortex dissected and rapidly frozen. Membranes were prepared by homogenizing tissues in 20 volumes (w/v) of 50 mM Tris containing 120 mM NaCl and 5 mM KCl, (pH 7.4 at 25° C.), using a Brinkman Polytron and centrifuged at 50,000×g for 10 min at 4° C. The resulting pellet was resuspended in buffer, recentrifuged and resuspended in buffer to a concentration of 80 mg/mL. Ligand binding experiments were conducted in assay tubes containing 0.5 mL buffer for 60 min at 0-4° C. […] Nonspecific binding was determined using 1 mM desipramine. Incubations were terminated by rapid filtration through Whatman GF/B filters, presoaked in 0.05% polyethylenimine, using a Brandel R48 filtering manifold (Brandel Instruments Gaithersburg, Md.). The filters were washed twice with 3 mL cold buffer and transferred to scintillation vials. Beckman Ready Value (3.0 mL) was added and the vials were counted using a Beckman 6000 liquid scintillation counter (Beckman Coulter Instruments, Fullerton, Calif.). […] All compounds were tested as racemic mixtures.

Assay [2] concerns the target dopamine transporter (DAT) (Rattus norvegicus (Rat), UniProt P23977). As to the kind of experiment: Dopamine Transporter Binding Assay ([3H]WIN 35428, rat striatal membranes). As to conditions: read-out: Ki (nM) ± S.E.M. DAT.
Assay [3] concerns the target serotonin transporter (SERT) (Rattus norvegicus (Rat), UniProt P31652). As to conditions: read-out: Ki (nM) ± S.E.M. SERT, rat brain membranes.
Experimental: Brains from male Sprague-Dawley rats weighing 200-225 g (Taconic Labs, Germantown, N.Y.) were removed, midbrain dissected and rapidly frozen. […] Nonspecific binding was determined using 10 mM fluoxetine. […] The filters were washed twice with 3 mL cold buffer and transferred to scintillation vials. Beckman Ready Value (3.0 mL) was added and the vials were counted the next day using a Beckman 6000 liquid scintillation counter (Beckman Coulter Instruments, Fullerton, Calif.). […] Data were analyzed with GraphPad Prism software (San Diego, Calif.).
[4] abbreviates: rat brain membranes, Table 1 thioacetamides and sulfinylacetamides.
[5] abbreviates: Table 1 thioacetamides and sulfinylacetamides.
Where [6] appears, read: Table 2 thioethanamines and sulfinylethanamines.

Like-named read-outs stand apart in the source and are kept apart here.

What is called Ki is a dissociation constant, usually derived from enzyme kinetics or from competition with a known ligand.

Chain of serotonin transporter (SERT) (P31652 whole entry): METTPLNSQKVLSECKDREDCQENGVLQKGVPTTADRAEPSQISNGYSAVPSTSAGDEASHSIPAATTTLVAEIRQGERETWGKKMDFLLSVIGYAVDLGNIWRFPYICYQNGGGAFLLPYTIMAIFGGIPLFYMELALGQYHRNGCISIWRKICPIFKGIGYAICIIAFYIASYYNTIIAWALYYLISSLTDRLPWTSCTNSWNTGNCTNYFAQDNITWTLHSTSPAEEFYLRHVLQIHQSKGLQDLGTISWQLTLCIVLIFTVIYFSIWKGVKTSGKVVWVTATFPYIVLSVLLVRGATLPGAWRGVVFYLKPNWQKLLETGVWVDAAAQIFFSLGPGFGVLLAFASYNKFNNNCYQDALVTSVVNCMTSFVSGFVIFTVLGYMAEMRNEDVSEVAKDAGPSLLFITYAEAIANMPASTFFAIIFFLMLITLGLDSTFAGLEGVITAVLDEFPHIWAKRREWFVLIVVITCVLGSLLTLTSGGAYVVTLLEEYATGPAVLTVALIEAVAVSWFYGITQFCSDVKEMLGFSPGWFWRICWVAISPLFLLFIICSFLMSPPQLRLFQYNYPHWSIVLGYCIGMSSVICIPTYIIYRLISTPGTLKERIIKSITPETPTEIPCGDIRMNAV
Chain of norepinephrine transporter (NET) (Q63380 1-617): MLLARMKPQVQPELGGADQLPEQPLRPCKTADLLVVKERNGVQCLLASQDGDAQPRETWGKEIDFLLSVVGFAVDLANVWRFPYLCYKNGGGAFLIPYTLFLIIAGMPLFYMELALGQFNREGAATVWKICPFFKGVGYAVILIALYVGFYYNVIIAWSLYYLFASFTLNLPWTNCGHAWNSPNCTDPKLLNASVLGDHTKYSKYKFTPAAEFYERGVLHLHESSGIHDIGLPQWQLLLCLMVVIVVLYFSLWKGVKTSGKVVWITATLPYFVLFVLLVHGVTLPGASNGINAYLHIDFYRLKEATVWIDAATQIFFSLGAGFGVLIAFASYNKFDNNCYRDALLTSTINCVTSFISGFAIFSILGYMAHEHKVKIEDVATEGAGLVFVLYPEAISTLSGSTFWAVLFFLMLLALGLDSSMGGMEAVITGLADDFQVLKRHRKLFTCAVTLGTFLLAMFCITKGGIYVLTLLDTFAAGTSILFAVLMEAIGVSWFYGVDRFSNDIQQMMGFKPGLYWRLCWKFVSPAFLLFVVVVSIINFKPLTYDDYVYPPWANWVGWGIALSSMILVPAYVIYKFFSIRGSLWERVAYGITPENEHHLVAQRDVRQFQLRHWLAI
Chain of dopamine transporter (DAT) (P23977 whole entry): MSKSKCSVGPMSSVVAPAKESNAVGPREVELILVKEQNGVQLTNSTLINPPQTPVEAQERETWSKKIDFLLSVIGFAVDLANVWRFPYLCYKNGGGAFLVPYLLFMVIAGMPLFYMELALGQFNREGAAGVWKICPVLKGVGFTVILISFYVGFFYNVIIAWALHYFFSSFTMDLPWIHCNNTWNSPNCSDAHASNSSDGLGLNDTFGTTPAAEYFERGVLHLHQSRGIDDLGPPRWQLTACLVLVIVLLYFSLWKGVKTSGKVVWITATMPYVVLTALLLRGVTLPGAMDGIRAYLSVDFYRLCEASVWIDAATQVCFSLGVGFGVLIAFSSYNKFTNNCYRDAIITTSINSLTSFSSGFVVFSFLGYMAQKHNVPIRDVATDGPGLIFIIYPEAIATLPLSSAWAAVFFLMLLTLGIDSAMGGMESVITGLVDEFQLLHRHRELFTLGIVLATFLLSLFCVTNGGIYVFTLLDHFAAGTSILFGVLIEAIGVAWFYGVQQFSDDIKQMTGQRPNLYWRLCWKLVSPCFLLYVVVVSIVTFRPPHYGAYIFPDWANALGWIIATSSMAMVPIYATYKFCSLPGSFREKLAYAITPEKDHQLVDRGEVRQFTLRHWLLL

For `NC(=O)CSC(c1ccccc1)c1ccccc1` [Compound 2a, 2-(Benzhydrylthio)acetamide], in assay [1], the Ki was greater than 100000 nM.
As to `NC(=O)CSC(c1cccc(Cl)c1)c1cccc(Cl)c1` [Compound 2e, 2-((Bis(3-chlorophenyl)methyl)thio)acetamide], the Ki in assay [1] was 34000 nM; in assay [2] (setting [4]), 277 ± 18.3 nM; in assay [3] (setting [5]), 739000 nM.
For `CNC(=O)CSC(c1ccccc1)c1ccccc1` [Compound 2g, 2-(Benzhydrylthio)-N-methylacetamide] the same measures were 27300 nM, 19400 nM and greater than 300000 nM.
Turning to `CNC(=O)CSC(c1ccc(Cl)cc1)c1ccc(Cl)cc1` [Compound 2h, 2-((Bis(4-chlorophenyl)methyl)thio)-N-methylacetamide], in assay [3] (setting [5]), the Ki was greater than 30000 nM.
Still for that read-out and setting: as for `CCCNC(=O)CSC(c1ccc(Cl)cc1)c1ccc(Cl)cc1` [Compound 2m, 2-((Bis(4-chlorophenyl)methyl)thio)-N-propylacetamide], the figure is 10300 nM.
Turning to `CCCNC(=O)CSC(c1ccc(Br)cc1)c1ccc(Br)cc1` [Compound 2n, 2-((Bis(4-bromophenyl)methyl)thio)-N-propylacetamide], the Ki in assay [1] was 10600 nM.
Take `CCCCNC(=O)CSC(c1ccc(F)cc1)c1ccc(F)cc1` [Compound 2s, 2-((Bis(4-fluorophenyl)methyl)thio)-N-butylacetamide]: the Ki in assay [2] (setting [4]) turned out to be 6470 nM.
Take `CCCCNC(=O)CSC(c1ccc(Br)cc1)c1ccc(Br)cc1` [Compound 2t, 2-((Bis(4-bromophenyl)methyl)thio)-N-butylacetamide]: the inhibition constant (Ki) came to 729 ± 69.3 nM in assay [2] (setting [4]) and 7090 nM in assay [3] (setting [5]).
Regarding `O=C(CSC(c1ccccc1)c1ccccc1)NCCCc1ccccc1` [Compound 2u, 2-(Benzhydrylthio)-N-(3-phenylpropyl)acetamide], the Ki in assay [2] is 2020 nM.
On to `O=C(CSC(c1ccc(F)cc1)c1ccc(F)cc1)NCCCc1ccccc1` [Compound 2v, 2-((Bis(4-fluorophenyl)methyl)thio)-N-(3-phenylpropyl)acetamide], for which the results for the Ki in assay [1] and in assay [3] (setting [5]) were greater than 100000 nM and 3640 nM, respectively.
Regarding `O=C(CSC(c1ccccc1)c1ccccc1)NCCCCc1ccccc1` [Compound 2y, 2-(Benzhydrylthio)-N-(4-phenylbutyl)acetamide], the Ki in assay [2] amounted to 1160 nM.
Turning to `O=C(CSC(c1ccc(Br)cc1)c1ccc(Br)cc1)NCCCCc1ccccc1` [Compound 2z, 2-((Bis(4-bromophenyl)methyl)thio)-N-(4-phenylbutyl)acetamide], the “Ki (nM) ± S.E.M. NET” value in assay [1] is recorded as “no displacement”. Moreover, the Ki in assay [1] and in assay [3] (setting [5]) was greater than 100000 nM each time.
As for `NC(=O)C[S+]([O-])C(c1ccc(C(F)(F)F)cc1)c1ccc(C(F)(F)F)cc1` (stereo not drawn) [Compound 3b, 2-((Bis(4-(trifluoromethyl)phenyl)methyl)sulfinyl)acetamide], the Ki in assay [2] (setting [4]) amounted to 35400 nM.
Turning to `c1ccc(C(SCCNCC2CC2)c2ccccc2)cc1` [Compound 4d, 2-(benzhydrylthio)-N-(cyclopropylmethyl)ethan-1-amine], the Ki is 437 ± 30.1 nM in assay [2] and 10000 nM in assay [3] (setting [6]).
For `Brc1ccc(C(SCCNCCCc2ccccc2)c2ccc(Br)cc2)cc1` [Compound 4i, N-(2-((bis(4-bromophenyl)methyl)thio)ethyl)-3-phenylpropan-1-amine] the same measures were 618 ± 53 nM and 163 ± 7.49 nM.
Regarding `NCC[S+]([O-])C(c1ccccc1)c1ccccc1` (stereo not drawn) [Compound 5a, 2-(Benzhydrylsulfinyl)ethan-1-amine], the Ki in assay [3] (setting [6]) was 3420 nM.
`NC(=O)CSC(c1ccc(Cl)cc1)c1ccc(Cl)cc1` [Compound 100, reference compound]: the Ki in assay [2] was 2230 nM; in assay [3] (setting [5]), 12700 nM.
`[O-][S+](CCNCCCc1ccccc1)C(c1ccccc1)c1ccccc1` (stereo not drawn) [Compound 200, reference compound]: the values for the Ki in assay [2] and in assay [3] (setting [6]) were 194 ± 16.8 nM and 1000 nM, respectively.

Values taken from patent US9862679B2, “Potent and selective inhibitors of monoamine transporters; method of making; and use thereof” (priority 2013, dated 2018).
